# Results from the supplement of paper PMC6045584.
# ± gives the standard deviation of the averaged measurements.
# Legend:
# [1] = compound: T1, CC[C@@]1(O)C(=O)OCc2c1cc1n(c2=O)Cc2cc3ccccc3nc2-1 [CAMPTOTHECIN]; test: area under dose-response curve of surviving fraction (unscaled, Aref=0) (surviving fraction x log10(nM)); higher = more resistant; settings: exposure time: 5 days; dose range 0.5-1000 nM
# In short: (§1)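 Each tumour cell line was screened three times in 384-well plates, receiving eight inhibitor concentrations from 0.5 to 1000 nM for five days. CellTiter-Glo luminescence gave viability, normalised to DMSO-only wells. Using the drc R package, surviving fractions were fitted with 3-parameter logistic dose-response curves, and the unscaled activity area over log10 dose (Aref = 0) was taken as the area under the curve.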
# [2] = compound: T2, O=C(O)C1(C(=O)O)CCC1.[NH2-].[NH2-].[Pt+2] [CARBOPLATIN]; test: as above; settings: exposure time: 5 days; dose range 0.5-1000 nM
# In short: as §1
# [3] = compound: T3, COc1cc2ncnc(Nc3ccc(F)c(Cl)c3)c2cc1OCCCN1CCOCC1 [GEFITINIB]; test: as above; settings: exposure time: 5 days; dose range 0.5-1000 nM
# In short: as §1
# [4] = compound: CC(=O)c1c(C)c2cnc(Nc3ccc(N4CCNCC4)cn3)nc2n(C2CCCC2)c1=O; test: as above; settings: exposure time: 5 days; dose range 0.5-1000 nM
# In short: as §1
# [5] = compound: T4, COCC[n+]1c2c(n(Cc3cnccn3)c1C)C(=O)c1ccccc1C2=O [YM155]; test: as above; settings: exposure time: 5 days; dose range 0.5-1000 nM
# In short: as §1
# [6] = compound: T5, Cc1ccc(-c2cc(C(F)(F)F)nn2-c2ccc(S(N)(=O)=O)cc2)cc1 [CELECOXIB]; test: as above; settings: exposure time: 5 days; dose range 0.5-1000 nM
# In short: as §1
# [7] = compound: CC(=O)NCC(=O)N1[C@@H]2CC[C@H]1c1ccc(Nc3ncc(C(F)(F)F)c(NC4CCC4)n3)cc12; test: as above; settings: exposure time: 5 days; dose range 0.5-1000 nM
# In short: as §1
# [8] = compound: T6, CC(=O)O[C@H]1C(=O)[C@@]2(C)[C@H]([C@H](OC(=O)c3ccccc3)[C@]3(O)C[C@H](OC(=O)[C@H](O)[C@@H](NC(=O)c4ccccc4)c4ccccc4)C(C)=C1C3(C)C)[C@]1(OC(C)=O)CO[C@@H]1C[C@@H]2O [PACLITAXEL]; test: as above; settings: exposure time: 5 days; dose range 0.5-1000 nM
# In short: as §1
# [9] = compound: T7, C[C@]1(O)C[C@@H](c2nc(-c3ccc4ccc(-c5ccccc5)nc4c3)c3c(N)nccn32)C1 [OSI-906]; test: as above; settings: exposure time: 5 days; dose range 0.5-1000 nM
# In short: as §1
# [10] = compound: T1, CAMPTOTHECIN; test: surviving fraction relative to DMSO-only wells; higher = less growth inhibition; settings: exposure time: 5 days
# In short: (§2)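 Inhibitors were tested at 0.5, 1, 5, 10, 50, 100, 500 and 1000 nM, applied continuously for five days beginning 24 hours after log-phase tumour cells were seeded at 250–500 per well in 384-well plates. CellTiter-Glo luminescence served as the viability measure, expressed as surviving fraction against the median of DMSO-only wells. Each line, screened three times, was kept only with replicate Pearson r >0.7 and median Z' >0.3.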
# [11] = compound: T2, CARBOPLATIN; test: as above; settings: exposure time: 5 days
# In short: as §2
# [12] = compound: T3, GEFITINIB; test: as above; settings: exposure time: 5 days
# In short: as §2
# [13] = compound: CC(=O)c1c(C)c2cnc(Nc3ccc(N4CCNCC4)cn3)nc2n(C2CCCC2)c1=O; test: as above; settings: exposure time: 5 days
# In short: as §2
# [14] = compound: T4, YM155; test: as above; settings: exposure time: 5 days
# In short: as §2
# [15] = compound: T5, CELECOXIB; test: as above; settings: exposure time: 5 days
# In short: as §2
# [16] = compound: CC(=O)NCC(=O)N1[C@@H]2CC[C@H]1c1ccc(Nc3ncc(C(F)(F)F)c(NC4CCC4)n3)cc12; test: as above; settings: exposure time: 5 days
# In short: as §2
# [17] = compound: T6, PACLITAXEL; test: as above; settings: exposure time: 5 days
# In short: as §2
# [18] = compound: T7, OSI-906; test: as above; settings: exposure time: 5 days
# In short: as §2
test system,measurement,setting,value
HS57T LUNG,area under dose-response curve,[1],1.43
same,area under dose-response curve,[2],3.58
same,area under dose-response curve,[3],3.31
same,area under dose-response curve,[4],3.56
same,area under dose-response curve,[5],1.67
same,area under dose-response curve,[6],3.47
same,area under dose-response curve,[7],2.46
same,area under dose-response curve,[8],0.449
same,area under dose-response curve,[9],2.92
HUO3N1 BONE,area under dose-response curve,[1],1.37
same,area under dose-response curve,[2],3.59
same,area under dose-response curve,[3],3.38
same,area under dose-response curve,[4],3.42
same,area under dose-response curve,[5],2.22
same,area under dose-response curve,[7],3.12
same,area under dose-response curve,[8],0.938
same,area under dose-response curve,[9],2.99
same,surviving fraction,[10]; 0.5 nM,0.761 ± 0.25
same,surviving fraction,[10]; 1 nM,0.955 ± 0.14
same,surviving fraction,[10]; 5 nM,0.639 ± 0.046
same,surviving fraction,[10]; 10 nM,0.373 ± 0.057
same,surviving fraction,[10]; 50 nM,0.228 ± 0.016
same,surviving fraction,[10]; 100 nM,0.203 ± 0.025
same,surviving fraction,[10]; 500 nM,0.1357 ± 0.0011
same,surviving fraction,[10]; 1000 nM,0.112 ± 0.0079
same,surviving fraction,[11]; 0.5 nM,1.08 ± 0.016
same,surviving fraction,[11]; 1 nM,1.06 ± 0.061
same,surviving fraction,[11]; 5 nM,1.13 ± 0.065
same,surviving fraction,[11]; 10 nM,1.12 ± 0.046
same,surviving fraction,[11]; 50 nM,1.11 ± 0.05
same,surviving fraction,[11]; 100 nM,1.09 ± 0.034
same,surviving fraction,[11]; 500 nM,1.05 ± 0.016
same,surviving fraction,[11]; 1000 nM,0.98 ± 0.068
same,surviving fraction,[12]; 0.5 nM,0.977 ± 0.032
same,surviving fraction,[12]; 1 nM,0.972 ± 0.053
same,surviving fraction,[12]; 5 nM,1.05 ± 0.022
same,surviving fraction,[12]; 10 nM,1.04 ± 0.018
same,surviving fraction,[12]; 50 nM,1.08 ± 0.044
same,surviving fraction,[12]; 100 nM,1.05 ± 0.039
same,surviving fraction,[12]; 500 nM,0.991 ± 0.052
same,surviving fraction,[12]; 1000 nM,0.974 ± 0.052
same,surviving fraction,[13]; 0.5 nM,1.01 ± 0.041
same,surviving fraction,[13]; 1 nM,1.04 ± 0.032
same,surviving fraction,[13]; 5 nM,1.05 ± 0.035
same,surviving fraction,[13]; 10 nM,1.01 ± 0.066
same,surviving fraction,[13]; 50 nM,1.04 ± 0.024
same,surviving fraction,[13]; 100 nM,1.1 ± 0.016
same,surviving fraction,[13]; 500 nM,1.01 ± 0.05
same,surviving fraction,[13]; 1000 nM,1.03 ± 0.022
same,surviving fraction,[14]; 0.5 nM,0.984 ± 0.065
same,surviving fraction,[14]; 1 nM,1.06 ± 0.015
same,surviving fraction,[14]; 5 nM,1.01 ± 0.036
same,surviving fraction,[14]; 10 nM,1.06 ± 0.04
same,surviving fraction,[14]; 50 nM,0.529 ± 0.14
same,surviving fraction,[14]; 100 nM,0.477 ± 0.046
same,surviving fraction,[14]; 500 nM,0.137 ± 0.0093
same,surviving fraction,[14]; 1000 nM,0.0927 ± 0.0065
same,surviving fraction,[15]; 0.5 nM,1.03 ± 0.04
same,surviving fraction,[15]; 1 nM,0.998 ± 0.039
same,surviving fraction,[15]; 5 nM,1.06 ± 0.057
same,surviving fraction,[15]; 10 nM,1.08 ± 0.061
same,surviving fraction,[15]; 50 nM,1.12 ± 0.017
same,surviving fraction,[15]; 100 nM,1.02 ± 0.039
same,surviving fraction,[15]; 500 nM,1 ± 0.023
same,surviving fraction,[15]; 1000 nM,0.974 ± 0.036
same,surviving fraction,[16]; 0.5 nM,1.01 ± 0.064
same,surviving fraction,[16]; 1 nM,0.997 ± 0.054
same,surviving fraction,[16]; 5 nM,1.01 ± 0.021
same,surviving fraction,[16]; 10 nM,1.02 ± 0.036
same,surviving fraction,[16]; 50 nM,1.03 ± 0.076
same,surviving fraction,[16]; 100 nM,0.972 ± 0.036
same,surviving fraction,[16]; 500 nM,0.737 ± 0.064
same,surviving fraction,[16]; 1000 nM,0.533 ± 0.037
same,surviving fraction,[17]; 0.5 nM,0.808 ± 0.025
same,surviving fraction,[17]; 1 nM,0.74 ± 0.019
same,surviving fraction,[17]; 5 nM,0.334 ± 0.011
same,surviving fraction,[17]; 10 nM,0.23 ± 0.0085
same,surviving fraction,[17]; 50 nM,0.129 ± 0.0068
same,surviving fraction,[17]; 100 nM,0.115 ± 0.0063
same,surviving fraction,[17]; 500 nM,0.094 ± 0.006
same,surviving fraction,[17]; 1000 nM,0.1 ± 0.018
same,surviving fraction,[18]; 0.5 nM,0.938 ± 0.09
same,surviving fraction,[18]; 1 nM,0.933 ± 0.068
same,surviving fraction,[18]; 5 nM,0.948 ± 0.082
same,surviving fraction,[18]; 10 nM,0.92 ± 0.053
same,surviving fraction,[18]; 50 nM,0.975 ± 0.047
same,surviving fraction,[18]; 100 nM,0.88 ± 0.029
same,surviving fraction,[18]; 500 nM,0.779 ± 0.031
same,surviving fraction,[18]; 1000 nM,0.794 ± 0.035
